Source: patent US7989422B2, “Antibacterial agents” (Alchemia Limited, priority 2005, dated 2011)

What was measured:
Format in all cases: cell-based
[1] = test system: Enterococcus faecium ATCC 35667; test: MIC against E. faecium, microbroth dilution; settings: MIC class
Summary of the method: (§1)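 CLSI microbroth dilution in Mueller Hinton broth, compounds diluted from a 128 μg/mL test solution. Wells received 5 μL of a 1:10 dilution of a 0.5 McFarland suspension and were incubated 18-24 h at 35° C without CO2, then examined for growth. Each well was then subcultured onto horse blood agar for another 18-24 h.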

[2] = test system: Staphylococcus aureus ATCC 25923; test: MIC against S. aureus, microbroth dilution in MH broth, without or with 5% horse serum; settings: MIC class; S. aureus ATCC 25923
Summary of the method: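 Single-concentration screen at 128 μg/mL in MH broth, then CLSI microbroth twofold dilution in MH broth without or with 5% heat-inactivated horse serum. Inoculum from 0.5 McFarland suspension diluted 1:10; plates incubated 35° C, non-CO2, 18-24 h, then scored for visible growth.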

[3] = test system: Staphylococcus aureus (MRSA) ATCC 33591; test: MIC against MRSA, microbroth dilution; settings: MIC class
Summary of the method: as §1

E. Faecium 51299 VanB = test: MIC against vancomycin-resistant enterococcus 51299 (VanB), microbroth dilution; settings: MIC class; ATCC 51299 VanB
Summary of the method: as §1

[4] = test system: Enterococcus faecalis ATCC 29212; test: MIC against E. faecalis, microbroth dilution; settings: MIC class
Summary of the method: as §1

Q: For `NC(C(=O)Nc1nc2cc(C(F)(F)F)ccc2n1C1C(CO)OCC(NS(=O)(=O)c2ccc(C(F)(F)F)cc2)C1O)c1ccc(-c2ccccc2)cc1` (centres unmarked) [Compound 240], which “E. Faecium 35667 activity” value [1] is on record?
A: − (“−”: MIC (μg/mL): MIC > 64)

Q: What about the “S. Aureus 25923 activity” value [2] of the same molecule?
A: ++ (“++”: MIC (μg/mL): MIC ≦ 16)

Q: What about the “S. Aureus 33591 MRSA activity” value [3] of the same molecule?
A: ++ (“++”: MIC (μg/mL): MIC ≦ 16)

Q: And the “E. Faecium 51299 VanB activity” value (E. Faecium 51299 VanB)?
A: − (“−”: MIC (μg/mL): MIC > 64)

Q: What about the “E. Fecalis 29212 activity” value [4] of the same molecule?
A: ++ (“++”: MIC (μg/mL): MIC ≦ 16)
